In patent US4622386A, “[1,7-di-alanine]calcitonin” (Armour Pharmaceutical Company, priority 1985, dated 1986):

Experiments:
[1] = system: serum calcium concentration; details: standard used in the rat serum calcium assay; cited from earlier work
[2] = system: serum calcium concentration; assay: Biological assay of calcitonin analogs in vivo: reduction of serum calcium concentration, 2×2 parallel line assay; details: rats, subcutaneous injection, blood withdrawn 1 hour later
Method: Biological Assay Of Calcitonin Analogs In Vivo
The biological potency of [Di-Ala^1,7 ]salmon calcitonin was determined by comparing the reduction of serum calcium concentration which followed administration by graded doses of [Di-Ala^1,7 ]SCT and synthetic salmon calcitonin standard. Rats were divided into four groups of seven animals, and each group was assigned at random to a dose of standard or test solution. Low and high doses were chosen from the linear portion of the dose-responsive curve. For the salmon calcitonin standard, the values were 0.7 and 2.1 mcg. peptide/100 g. body weight (BW). This dose approximates 3 and 9 MU/100 g. BW. Peptides were given by subcutaneous injection (0.2 ml/100 g. BW) and blood was withdrawn 1 hour later for serum calcium determination. Sera are processed and analyzed within two hours of collection. […]. Results were analyzed by a 2×2 parallel line assay [Gaddum, J. H., J. Pharm. Pharmacol., 6, 345 (1953)]. The standard salmon calcitonin used was independently determined to contain greater than 4,000 IU/mg. [Di-Ala^1,7 ]SCT assayed at 5550 IU/mg.

Substance	potency of the standard salmon calcitonin, independently determined [1]	biological potency (reduction of serum calcium concentration vs synthetic salmon calcitonin standard) [2] [IU/mg]
Salmon calcitonin [standard salmon calcitonin]	greater than 4,000 IU/mg	–
[1,7-Di-Alanine)]salmon calcitonin [[Di-Ala^1,7]SCT]	–	5550
